Assay results reported in patent US20260151398A1, “COMPOUNDS FOR REDUCING CHOLESTEROL AND TREATING LIVER AND KIDNEY DISEASE” (McMaster University, priority 2021, published 2026).
Entries after “also recorded” stand apart in the source; their conditions may differ.

Assays:
PCSK9 = PCSK9 secretion from cultured and primary hepatocytes (ELISA of medium); assay type: cell-based, human, mouse; details: for PCSK9 secretion with Ca2+-modulating agents: ELISA of medium
Description: HuH7 and HepG2 cells were routinely grown in complete Dulbecco's Modified Eagle's Medium (Gibco, Thermofisher Scientific) supplemented with 10% fetal bovine serum (Sigma-Aldrich) and 100 U/ml of penicillin and streptomycin (Sigma-Aldrich). […] All cell treatments were carried out for 24 h unless otherwise stated. Cells were transfected with a cocktail consisting of plasmid DNA (1 μg), X-tremeGENE HP (3 μl; Thermofisher Scientific) and opti-MEM (100 μl; Thermofischer Scientific) per 1 ml complete medium containing plated cells. Human PCSK9 was overexpressed using the bicistronic pIRES-EGFP plasmid; calnexin using the mPA-GFP-N1 plasmid. To block the expression of GRP78 and CD36, siGENOME smartpool siRNA was purchased from GE Dharmacon (M-008198-02 and L-010206-00-0005 respectively) and transfected using lipofectamine RNAiMAX as per manufacturer's protocol.
Secreted PCSK9 levels were assessed directly in cell culture medium of cells grown in FBS-free medium for 24 h or in the serum isolated from either mice or human subjects. Mouse PCSK9 was measured using the Quantikinine® ELISA kit (#MCP900, R&D Systems) and human PCSK9 using the PCSK9 Quantikinine® ELISA kit (#DCP900, R&D Systems). Serum ApoB levels were also quantified using ELISAs (#DAPB00, R&D Systems). Serum samples were diluted as per manufacturer's instructions.
All animal studies were carried out in 8 h-fasted male wild-type, Pcsk9^−/− or Ampkβ1^−/− mice on the C57BL/6J background. CF (25-100 mg/kg-8 h) and CDN (50 mg/kg) treatments were administered via intraperitoneal injection unless specified otherwise. Primary mouse hepatocytes were isolated using a two-step process with EGTA ([…] in HEPES buffer, Sigma Aldrich) and collagenase (0.05% in HEPES buffer, Sigma Aldrich) in 12-week-old male mice on the C57BL/6J background. Cells were then washed, centrifuged, and plated following isolation in cell strainers. Hepatosure® 100-donor pooled primary human hepatocytes were purchased from Xenotech. Primary hepatocytes were regularly grown in William's E medium (Gibco, Thermo Fisher Scientific) containing 10% fetal bovine serum, 100 IU/ml penicillin, and 100 µg/ml streptomycin.

SREBP2 = SREBP2 expression and activation in hepatocytes (real-time PCR, SRE-GFP reporter, immunoblot, immunofluorescence); assay type: cell-based, human, mouse; details: for activation and nuclear localization of SREBP2: immunoblots of whole-cell lysates
Description: Cells were washed in phosphate-buffered saline (PBS), lysed in 4× SDS-PAGE lysis buffer and separated on 7-10% polyacrylamide gels in denaturing conditions. Gels were transferred to nitrocellulose membranes using the BioRad mini trans-blot system, blocked in 5% skim milk in tris-buffered saline (TBS) for 1 h and incubated in primary antibody overnight for 16 h at 4° C. Membranes were then exposed to horse radish peroxidase conjugated secondary antibodies and visualized using EZ-ECL chemiluminescent reagent (Froggabio). Band intensities were quantified using ImageJ software ([…]) against membranes reprobed for housekeeping proteins.
Cells were plated in 4-well chamber slides and incubated in complete DMEM for 24 h and exposed to treatments 24 h later for an additional 24 h. Cells were fixed with 4% paraformaldehyde for 30 minutes and washed with either non-permeabilizing, or permeabilizing PBS containing 0.025% Triton-X. Cells were then blocked with 1% bovine serum albumin (BSA) for 30 minutes and stained with anti-GFP antibody for 1 h in PBS containing 1% BSA. Afterwards, cells were washed and incubated with Alexa 488 fluorescently-labelled secondary antibodies (Thermofisher Scientific), as well as the DAPI nuclear stain. Slides were then mounted with permafluor and visualized using the EVOS FL colour imaging system at either 20 or 40× magnification.
RNA purification/isolation was performed using RNeasy mini kits (Qiagen) and normalized to 2 μg RNA using a NanoDrop® spectrophotometer. Samples were then reverse transcribed into cDNA using Superscript Vilo cDNA Synthesis kit (Thermofisher Scientific). Real-time PCR was executed with Fast SYBR Green (Thermo Fisher Scientific) using the ΔΔct method on the ViiA7 real-time PCR platform (Thermofisher Scientific).
Therefore, the effect of CF on TG-; induced SREBP2 activation was examined. […] SREBP2 activity was then examined at the protein level in HuH7 cells transfected with a plasmid encoding GFP driven by the sterol regulatory element (SRE-GFP; FIG. 2E to G). […] GFP expression was also visualized via immunofluorescent staining and quantified using ImageJ Software.

Cc1ccc2cccc(NC(=O)c3ccc(OC(C)C)cc3)c2n1 [CDN]
PCSK9 secretion with Ca2+-modulating agents (PCSK9): blocked PCSK9 secretion | activation and nuclear localization of SREBP2 (SREBP2): antagonized the activation and nuclear localization of SREBP2

C/C=C(/C)C(=O)O[C@H]1C(C)=C2[C@H]([C@@H]1OC(=O)CCCCCCC)[C@@](C)(OC(C)=O)C[C@H](OC(=O)CCC)[C@@]1(O)[C@H]2OC(=O)[C@@]1(C)O [TG, thapsigargin]
PCSK9 secretion with Ca2+-modulating agents (PCSK9): blocked PCSK9 secretion | activation and nuclear localization of SREBP2 (SREBP2): opposite effect

Cn1c(=O)c2c(ncn2C)n(C)c1=O [caffeine, 1,3,7-Trimethylxanthine]
PCSK9 secretion (PCSK9; HuH7, HepG2, PMH, PHH, listed as CF): blocked the secretion of PCSK9; also recorded: blocks PCSK9 expression and secretion | re-localization of SREBP2 to the nucleus (SREBP2; HuH7, TG-treated, immunofluorescence): attenuated the re-localization of SREBP2 | nuclear SREBP2 (nSREBP2) and SRE-driven GFP expression (SREBP2; HuH7 transfected with SRE-GFP, presence and absence of TG, listed as CF): blocked the nuclear/activated isoform of SREBP2; also recorded: blocks SREBP2 activation | SREBP2 expression (SREBP2; PMH, PHH, HepG2, real-time PCR): blocked the expression of SREBP2 | activation and nuclear localization of SREBP2 (SREBP2): antagonized the activation and nuclear localization of SREBP2
